Each molecule was assayed on Aβ1-42 production (assay: Cellular assay for inhibition of Aβ1-42 production (H4 APP751 SWE clone 8.20)). Conditions: 19 h, H4 APP751 SWE clone 8.20 cells, 19 h incubation; class symbols; read-out: Activity Rating (Aβ42 cellular IC50).
Type: cell-based
How it was run: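 Inhibition values are IC50s fitted to Viewlux counts after a 19 h compound exposure at 37 °C. Aβ42 was captured by the neoepitope-specific antibody 565 (0.8 ng/well) paired with N-terminal 26D6 (75 ng/well), incubated overnight at 4 °C in pH 7.4 Tris-HCl buffer containing 0.2% BSA.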

`CNc1nc(Nc2ccc(C3(C#N)CCCC3)cc2)nc2c1CCC2c1ccccc1` (centres unmarked) [Example 244, 1-(4-(4-(methylamino)-7-phenyl-6,7-dihydro-5H-cyclopenta[d]pyrimidin-2-ylamino)phenyl)cyclopentanecarbonitrile] and `CNc1nc(Nc2ccc(NC3(C#N)CC3)c(OC)c2)nc2c1CCC2c1ccccc1` (centres unmarked) [Example 248, 1-(2-methoxy-4-(4-(methylamino)-7-phenyl-6,7-dihydro-5H-cyclopenta[d]pyrimidin-2-ylamino)phenylamino)cyclopropanecarbonitrile] cannot be ordered by IC50: > 1000 nM for the first, > 1000 nM for the second.

Compared with `CCNc1nc(Nc2ccc(-n3ncnc3C)c(F)c2)nc2c1CN(CC(F)F)CC2c1ccccc1` (centres unmarked) [Example 194, 6-(2,2-difluoroethyl)-N4-ethyl-N2-(3-fluoro-4-(5-methyl-1H-1,2,4-triazol-1-yl)phenyl)-8-phenyl-5,6,7,8-tetrahydropyrido[4,3-d]pyrimidine-2,4-diamine], `CNc1nc(Nc2ccc(-n3ncnc3C)c(F)c2)nc2c1CCC2c1ccc(F)cc1` (centres unmarked) [Example 12, N^2-(3-Fluoro-4-(5-methyl-1H-1,2,4-triazol-1-yl)phenyl)-7-(4-fluorophenyl)-N^4-methyl-6,7-dihydro-5H-cyclopenta[d]pyrimidine-2,4-diamine] is lower in IC50: 10 to 100 nM for the first, 1.5 to 9.9 nM for the second. The second is the more potent here.

`COc1cc(Nc2nc3c(c(N4CCC(C(F)(F)F)C4)n2)CCC3c2ccc(F)cc2)ccc1-n1cnc(Cl)c1` (racemic) [Example 41, N-(4-(4-chloro-1H-imidazol-1-yl)-3-methoxyphenyl)-7-(4-fluorophenyl)-4-(3-(trifluoromethyl)pyrrolidin-1-yl)-6,7-dihydro-5H-cyclopenta[d]pyrimidin-2-amine] and `COc1cc(Nc2nc3c(c(N4CC[C@@H](F)C4)n2)CCC3c2ccc(F)cc2)ccc1-n1cnc(Cl)c1` (stereo partly drawn) [Example 38, N-(4-(4-chloro-1H-imidazol-1-yl)-3-methoxyphenyl)-7-(4-fluorophenyl)-4-((R)-3-fluoropyrrolidin-1-yl)-6,7-dihydro-5H-cyclopenta[d]pyrimidin-2-amine] fall in the same range of IC50: 10 to 100 nM for the first, 10 to 100 nM for the second.

`CC[C@H](COC)Nc1nc(Nc2ccc(-n3cnc(Cl)c3)c(OC)c2)nc2c1CCC2c1ccc(F)cc1` (single isomer, unassigned) [Example 48A] and `[2H]C([2H])([2H])Nc1nc(Nc2ccc(-n3cnc(Cl)c3)c(OC)c2)nc2c1CCC2c1ccc(F)cc1` (centres unmarked) [Example 47, N^2-(4-(4-Chloro-1H-imidazol-1-yl)-3-methoxyphenyl)-7-(4-fluorophenyl)-N^4-trideuteromethyl-6,7-dihydro-5H-cyclopenta[d]pyrimidine-2,4-diamine] fall in the same range of IC50: 1.5 to 9.9 nM for the first, 1.5 to 9.9 nM for the second.

First: CNc1nc(Nc2ccc(-n3cnc(Cl)c3)c(OC)c2)nc2c1COCC2c1ccc(Br)cc1 (centres unmarked) [Example 72, 8-(4-bromophenyl)-N^2-(4-(4-chloro-1H-imidazol-1-yl)-3-methoxyphenyl)-N^4-methyl-7,8-dihydro-5H-pyrano[4,3-d]pyrimidine-2,4-diamine]
Second: CNc1nc(Nc2ccc(-n3cnc(Cl)c3)c(OC)c2)nc2c1COCC2c1ccc(F)cc1 (centres unmarked) [Example 60B, N2-(4-(4-chloro-1H-imidazol-1-yl)-3-methoxyphenyl)-8-(4-fluorophenyl)-N4-methyl-7,8-dihydro-5H-pyrano[4,3-d]pyrimidine-2,4-diamine]
The IC50 of the first is lower: 1.5 to 9.9 nM for the first, 10 to 100 nM for the second. The first is the more potent here.

`COc1cc(Nc2nc3c(c(N(C)C)n2)CCC3c2ccc(F)c(F)c2)ccc1-n1cnc(Cl)c1` (racemic) [Example 95, N^2-(4-(4-Chloro-1H-imidazol-1-yl)-3-methoxyphenyl)-7-(3,4-difluorophenyl)-N^4,N^4-dimethyl-6,7-dihydro-5H-cyclopenta[d]pyrimidine-2,4-diamine] and `COc1cc(Nc2nc3c(c(N4CC[C@H](F)C4)n2)CCC3c2ccc(F)cc2)ccc1-n1cnc(Cl)c1` (single isomer, unassigned) [Example 37] fall in the same range of IC50: 1.5 to 9.9 nM for the first, 1.5 to 9.9 nM for the second.

Same assay, conditions: 19 h, H4 APP751 SWE clone 8.20 cells, 19 h incubation; read-out: Activity Rating (Aβ42 cellular IC50), numeric value

`CCNc1nc(Nc2ccc(-n3cnc(Cl)c3)c(OC)c2)nc2c1CCN(C(C)=O)C2c1ccc(F)cc1` (centres unmarked) [Example 171, 1-(2-(4-(4-chloro-1H-imidazol-1-yl)-3-methoxyphenylamino)-4-(ethylamino)-8-(4-fluorophenyl)-5,6-dihydropyrido[3,4-d]pyrimidin-7(8H)-yl)ethanone] and `CCNc1nc(Nc2ccc(-n3cnc(Cl)c3)c(OC)c2)nc2c1CN(C(C)=O)CC2c1ccccc1` (centres unmarked) [Example 137, 1-(2-(4-(4-chloro-1H-imidazol-1-yl)-3-methoxyphenylamino)-4-(ethylamino)-8-phenyl-7,8-dihydropyrido[4,3-d]pyrimidin-6(5H)-yl)ethanone] are within 1.5-fold of each other in IC50: 16 nM for the first, 11 nM for the second.

`COc1cc(Nc2nc3c(c(N4CC(F)(F)C4)n2)CCC3c2cc(F)c(F)c(F)c2)ccc1-n1cnc(Cl)c1` (centres unmarked) [Example 108, N-(4-(4-Chloro-1H-imidazol-1-yl)-3-methoxyphenyl)-4-(3,3-difluoroazetidin-1-yl)-7-(3,4,5-trifluorophenyl)-6,7-dihydro-5H-cyclopenta[d]pyrimidin-2-amine] and `COc1ccc(CN2CCc3c(nc(Nc4ccc(-n5cnc(Cl)c5)c(OC)c4)nc3N3CC[C@H](F)C3)C2c2ccc(F)cc2)cc1` (stereo partly drawn) [Example 167A, N-(4-(4-chloro-1H-imidazol-1-yl)-3-methoxyphenyl)-8-(4-fluorophenyl)-4-((S)-3-fluoropyrrolidin-1-yl)-7-(4-methoxybenzyl)-5,6,7,8-tetrahydropyrido[3,4-d]pyrimidin-2-amine] are within 1.5-fold of each other in IC50: 20 nM for the first, 26 nM for the second.

First: CCNc1nc(Nc2ccc(-n3ncnc3C)c(F)c2)nc2c1COCC2c1ccc(C(F)(F)F)cc1 (centres unmarked) [Example 119A, N4-ethyl-N2-(3-fluoro-4-(5-methyl-1H-1,2,4-triazol-1-yl)phenyl)-8-(4-(trifluoromethyl)phenyl)-7,8-dihydro-5H-pyrano[4,3-d]pyrimidine-2,4-diamine]
Second: CNc1nc(Nc2cncnc2)nc2c1CCC2c1ccccc1 (centres unmarked) [Example 223, N4-methyl-7-phenyl-N2-(pyrimidin-5-yl)-6,7-dihydro-5H-cyclopenta[d]pyrimidine-2,4-diamine]
The IC50 of the first is 1500-fold lower: 7.4 nM for the first, 11000 nM for the second. The first is the more potent here.

Same assay, conditions: H4 APP751 SWE clone 8.20 cells, 19 h incubation; class symbols; read-out: Activity Rating (Aβ42 cellular IC50)

First: COc1cc(Nc2nc(N[C@@H](C)C3CC3)c3c(n2)C(c2ccc(F)cc2)CC3)ccc1-n1cnc(Cl)c1 (single isomer, unassigned) [Example 50B]
Second: COc1cc(Nc2nc(N[C@H](C)C3CC3)c3c(n2)C(c2ccc(F)cc2)CC3)ccc1-n1cnc(Cl)c1 (single isomer, unassigned) [Example 49A]
The IC50 of the first is higher: 10 to 100 nM for the first, 1.5 to 9.9 nM for the second. The second is the more potent here.

`CCNc1nc(Nc2ccc(-n3cnc(Cl)c3)c(OC)c2)nc2c1CCN(C(=O)OC)C2c1ccc(F)cc1` (single isomer, unassigned) [Example 170A, methyl 2-(4-(4-chloro-1H-imidazol-1-yl)-3-methoxyphenylamino)-4-(ethylamino)-8-(4-fluorophenyl)-5,6-dihydropyrido[3,4-d]pyrimidine-7(8H)-carboxylate] and `CCNc1nc(Nc2ccc(-n3cnc(Cl)c3)c(OC)c2)nc2c1COCC2c1ccc(F)cc1` (centres unmarked) [Example 56A, N2-(4-(4-chloro-1H-imidazol-1-yl)-3-methoxyphenyl)-N4-ethyl-8-(4-fluorophenyl)-7,8-dihydro-5H-pyrano[4,3-d]pyrimidine-2,4-diamine] fall in the same range of IC50: 1.5 to 9.9 nM for the first, 1.5 to 9.9 nM for the second.

`CCNc1nc(Nc2ccc(-n3cnc(Cl)c3)c(OC)c2)nc2c1CCN(C(=O)OC)C2c1ccc(F)cc1` (centres unmarked) [Example 170, methyl 2-(4-(4-chloro-1H-imidazol-1-yl)-3-methoxyphenylamino)-4-(ethylamino)-8-(4-fluorophenyl)-5,6-dihydropyrido[3,4-d]pyrimidine-7(8H)-carboxylate] and `CNc1nc(Nc2ccc(-n3cnc(Cl)c3)c(OC)c2)nc2c1CN(S(C)(=O)=O)CC2c1ccc(F)cc1` (centres unmarked) [Example 154, N2-(4-(4-chloro-1H-imidazol-1-yl)-3-methoxyphenyl)-8-(4-fluorophenyl)-N4-methyl-6-(methylsulfonyl)-5,6,7,8-tetrahydropyrido[4,3-d]pyrimidine-2,4-diamine] fall in the same range of IC50: 10 to 100 nM for the first, 10 to 100 nM for the second.

First: CCNc1nc(Nc2ccc(-n3cnc(Cl)c3)c(OC)c2)nc2c1COCC2c1ccc(C(F)(F)F)cc1 (centres unmarked) [Example 118A, N2-(4-(4-chloro-1H-imidazol-1-yl)-3-methoxyphenyl)-N4-ethyl-8-(4-(trifluoromethyl)phenyl)-7,8-dihydro-5H-pyrano[4,3-d]pyrimidine-2,4-diamine]
Second: COc1cc(Nc2nc(N[C@H](C)C3CC3)c3c(n2)C(c2ccc(C(F)(F)F)cc2)COC3)ccc1-n1cnc(Cl)c1 (stereo partly drawn) [Example 117B, N2-(4-(4-chloro-1H-imidazol-1-yl)-3-methoxyphenyl)-N4-((R)-1-cyclopropylethyl)-8-(4-(trifluoromethyl)phenyl)-7,8-dihydro-5H-pyrano[4,3-d]pyrimidine-2,4-diamine]
The IC50 of the first is lower: 1.5 to 9.9 nM for the first, 100 to 1000 nM for the second.

Compared with `COc1cc(Nc2nc3c(c(N4CCC(F)C4)n2)CCOC3c2ccc(F)cc2)ccc1-n1cnc(Cl)c1` (stereo in doubt) [Example 91B, N-(4-(4-chloro-1H-imidazol-1-yl)-3-methoxyphenyl)-8-(4-fluorophenyl)-4-((S)-3-fluoropyrrolidin-1-yl)-6,8-dihydro-5H-pyrano[3,4-d]pyrimidin-2-amine], `COc1cc(Nc2nc3c(c(N4CC(OC)C4)n2)CCC3c2ccccc2)ccc1-n1cnc(Cl)c1` (single isomer, unassigned) [Example 183A, N-(4-(4-chloro-1H-imidazol-1-yl)-3-methoxyphenyl)-4-(3-methoxyazetidin-1-yl)-7-phenyl-6,7-dihydro-5H-cyclopenta[d]pyrimidin-2-amine] is lower in IC50: 100 to 1000 nM for the first, 1.5 to 9.9 nM for the second. The second is the more potent here.

With `CNc1nc(Nc2ccc(-n3cnc(Cl)c3)c(OC)c2)nc2c1COCC2c1ccc(F)c(F)c1` (centres unmarked) [Example 115B, N2-(4-(4-chloro-1H-imidazol-1-yl)-3-methoxyphenyl)-8-(3,4-difluorophenyl)-N4-methyl-7,8-dihydro-5H-pyrano[4,3-d]pyrimidine-2,4-diamine] the IC50 was 10 to 100 nM.

From patent US8637525B2, “Compounds for the reduction of beta-amyloid production” (Bristol-Myers Squibb Company, priority 2009, dated 2014)
